Where “and” joins values, the source holds several entries; their conditions need not be identical. Equal entries are not always repeated. Structures can show the parent of a compound that is named as a salt.
How the values were obtained:
Sprague-Dawley rats = test: Antinociceptive activity, cold ethanol tail-flick test after oral gavage; type: in vivo, rat; conditions: for Analgesia (rat): oral gavage in sesame oil, 60 uM/kg, one dose, tail-flick at −20° C., cutoff 40 seconds; for analgesia in rats, in words: given orally, compared with equivalent dose of Nalbuphine (parent opioid)
[1] = Stability in human plasma; conditions: 37° C., acceptance criteria: NLT than 20% of hydrolysis after 4 hrs
[2] = Stability in the simulated gastro-intestinal fluid (sGIF); conditions: 0.5% pepsine in 0.1N aqueous HCl, 37° C.; acceptance: NLT 80% of the derivative still intact after 4 hrs
rats = test: Randall-Selitto test after SC dose; type: in vivo, rat; conditions: NB-33.HCl 3.9 mg/kg; for Randall-Selitto (g), individual animal: NB.HCl 3 mg/kg; for Randall-Selitto (g), Mean: mean of 5, NB.HCl 3 mg/kg
From the text: FIG. 13 illustrate in the graphical form the results for 1310 NB-33, marked 1310, in comparison to the base NB compound NB, marked 1320 in FIG. 13.

Structure (SMILES)	Analgesia (rat) (Sprague-Dawley rats)	Stable in plasma [1]	Stable in sGIF [2]	analgesia in rats, in words (Sprague-Dawley rats)	also measured
CC(C)=CCC/C(C)=C/COc1ccc2c3c1OC1C(O)CCC4(O)C(C2)N(CC2CCC2)CCC314 (stereo not shown) [NB-20, (E)-3-(cyclobutylmethyl)-9-((3,7-dimethylocta-2,6-dien-1-yl)oxy)-1,2,3,4,5,6,7,7a-octahydro-4aH-4,12-methanobenzofuro[3,2-e]isoquinoline-4a,7-diol]	No	No	No	–	–
CC(C)=CCC/C(C)=C/CC/C(C)=C/COc1ccc2c3c1OC1C(O)CCC4(O)C(C2)N(CC2CCC2)CCC314 (stereo not shown) [NB-28, 3-(cyclobutylmethyl)-9-(((2E,6E)-3,7,11-trimethyldodeca-2,6,10-trien-1-yl)oxy)-1,2,3,4,5,6,7,7a-octahydro-4aH-4,12-methanobenzofuro[3,2-e]isoquinoline-4a,7-diol]	No	No	No	–	–
C=CCCCCCCCCC(=O)Oc1ccc2c3c1OC1C(O)CCC4(O)C(C2)N(CC2CCC2)CCC314 (stereo not shown) [NB-31, 3-(cyclobutylmethyl)-4a,7-dihydroxy-2,3,4,4a,5,6,7,7a-octahydro-1H-4,12-methanobenzofuro[3,2-e]isoquinolin-9-yl undec-10-enoate]	Inactive	No	Yes	no analgesia	–
CC(C)=CCC/C(C)=C/C(=O)Oc1ccc2c3c1OC1C(O)CCC4(O)C(C2)N(CC2CCC2)CCC314 (stereo not shown) [NB-32, 3-(cyclobutylmethyl)-4a,7-dihydroxy-2,3,4,4a,5,6,7,7a-octahydro-1H-4,12-methanobenzofuro[3,2-e]isoquinolin-9-yl (E)-3,7-dimethylocta-2,6-dienoate]	Inactive	No	Yes	no analgesia	–
CC(C)C(=O)Oc1ccc2c3c1OC1C(O)CCC4(O)C(C2)N(CC2CCC2)CCC314 (stereo not shown) [NB-46, 3-(cyclobutylmethyl)-4a,7-dihydroxy-2,3,4,4a,5,6,7,7a-octahydro-1H-4,12-methanobenzofuro[3,2-e]isoquinolin-9-yl isobutyrate]	No	Yes	Yes	–	–
CC(C)=CC(=O)Oc1ccc2c3c1OC1C(O)CCC4(O)C(C2)N(CC2CCC2)CCC314 (stereo not shown) [NB-51, 3-(cyclobutylmethyl)-4a,7-dihydroxy-2,3,4,4a,5,6,7,7a-octahydro-1H-4,12-methanobenzofuro[3,2-e]isoquinolin-9-yl 3-methylbut-2-enoate]	Inactive	No	Yes	–	–
C/C=C(\C)C(=O)Oc1ccc2c3c1OC1C(O)CCC4(O)C(C2)N(CC2CCC2)CCC314 (stereo not shown) [NB-52, 3-(cyclobutylmethyl)-4a,7-dihydroxy-2,3,4,4a,5,6,7,7a-octahydro-1H-4,12-methanobenzofuro[3,2-e]isoquinolin-9-yl (E)-2-methylbut-2-enoate]	Inactive	No	Yes	no analgesia	–
CC=C(OC)C(=O)Oc1ccc2c3c1OC1C(O)CCC4(O)C(C2)N(CC2CCC2)CCC314 (stereo not shown) [NB-58, 3-(cyclobutylmethyl)-4a,7-dihydroxy-2,3,4,4a,5,6,7,7a-octahydro-1H-4,12-methanobenzofuro[3,2-e]isoquinolin-9-yl 2-methoxybut-2-enoate]	No	No	No	–	–
C/C=C/C=C/C(=O)Oc1ccc2c3c1OC1C(OC(C)=O)CCC4(O)C(C2)N(CC2CCC2)CCC314 (stereo not shown) [NB-76, 7-acetoxy-3-(cyclobutylmethyl)-4a-hydroxy-2,3,4,4a,5,6,7,7a-octahydro-1H-4,12-methanobenzofuro[3,2-e]isoquinolin-9-yl (2E,4E)-hexa-2,4-dienoate]	moderate	No	Yes	–	–
O=C(/C=C/c1ccccc1)Oc1ccc2c3c1OC1C(O)CCC4(O)C(C2)N(CC2CCC2)CCC314 (stereo not shown) [NB-78, 3-(cyclobutylmethyl)-4a,7-dihydroxy-2,3,4,4a,5,6,7,7a-octahydro-1H-4,12-methanobenzofuro[3,2-e]isoquinolin-9-yl cinnamate]	Inactive	No	Yes	no analgesia	–
Oc1ccc2c3c1O[C@H]1[C@@H](O)CC[C@@]4(O)[C@@H](C2)N(CC2CCC2)CC[C@]314 [NB.HCl]	–	–	–	–	Randall-Selitto (g), individual animal (rats; Post-dose 0.5 hr): 78 g and 89 g and 93 g and 107 g and 134 g; Randall-Selitto (g), Mean (rats; Post-dose 0.5 hr): 100.2 g; Randall-Selitto (g), individual animal (rats; Post-dose 1 hr): 63 g and 62 g and 92 g and 90 g and 96 g; Randall-Selitto (g), Mean (rats; Post-dose 1 hr): 80.6 g; Randall-Selitto (g), individual animal (rats; Post-dose 2 hr): 58 g and 71 g and 103 g and 69 g and 93 g; Randall-Selitto (g), Mean (rats; Post-dose 2 hr): 78.8 g; Randall-Selitto (g), individual animal (rats; Post-dose 4 hr): 64 g and 66 g and 93 g (2×) and 61 g; Randall-Selitto (g), Mean (rats; Post-dose 4 hr): 75.4 g; Randall-Selitto (g), individual animal (rats; Post-dose 6 hr): 50 g and 71 g and 82 g and 69 g and 85 g; Randall-Selitto (g), Mean (rats; Post-dose 6 hr): 71.4 g; Randall-Selitto (g), individual animal (rats; Pre-treatment (baseline)): 89 g and 92 g and 100 g and 80 g and 91 g; Randall-Selitto (g), Mean (rats; Pre-treatment (baseline)): 90.4 g
